“Also recorded” adds a separate entry of the source. Read-outs that look alike come from different tables or passages of the source.
Legend:
[1] = molecular target: T1, murine RA-β3 (Mus musculus, UniProt P25962); experiment: cAMP accumulation in CHO-Muβ3 cells (agonists); type: cell-based; conditions: for A.I. (% IPR), intrinsic activity: % of maximum effect of (-)-isoproterenol; for maximum stimulation of cAMP accumulation: % of that for (-)-isoproterenol; for activation of receptor by β1 and β2 antagonists (in words): murine RA-β3; for agonist type (in words): murine RA-β3, CHO-Muβ3
T1 construct: expressed in transfected cells
T1 sequence (P25962 1-388): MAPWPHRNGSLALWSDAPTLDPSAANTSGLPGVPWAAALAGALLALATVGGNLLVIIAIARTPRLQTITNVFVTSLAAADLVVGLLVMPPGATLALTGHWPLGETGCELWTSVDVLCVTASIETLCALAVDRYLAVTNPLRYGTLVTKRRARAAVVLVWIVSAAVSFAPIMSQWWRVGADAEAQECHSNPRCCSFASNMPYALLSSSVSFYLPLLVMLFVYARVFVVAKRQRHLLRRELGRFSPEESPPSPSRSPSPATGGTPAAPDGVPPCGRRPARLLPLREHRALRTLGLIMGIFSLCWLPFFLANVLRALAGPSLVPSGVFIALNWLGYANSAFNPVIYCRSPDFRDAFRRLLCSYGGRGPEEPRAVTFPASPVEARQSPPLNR
Method: (§1) a. Test for cAMP Accumulation
(§2) preconfluent cells such as those described in Example 5 (5×10^5) are incubated at 37° C. for 20 minutes in 0.5 ml of HANKS buffer containing 20 mM HEPES (pH 7.4), 1 mM ascorbic acid, 1 mM isobutylmethylxanthine and various concentrations of agonist.
(§3) After boiling for 5 min and centrifugation (4000 r.p.m., 10 min, 4° C.), the quantity of cAMP produced is determined using the Amersham cAMP kit.
To determine the pharmacological profile of murine RA-β3, the coding region of its gene was inserted into an expression vector like that described in Example 5.
(§4) The Kact values correspond to the agonist concentration giving 50% of the maximum stimulation.

[2] = molecular target: T2, human RA-β3 (Homo sapiens, UniProt P13945); experiment: cAMP accumulation in CHO-Huβ3 cells (agonists); type: cell-based; conditions: for EC50: CHO-Huβ3, agonist concentration giving 50% of the maximum stimulation, read-out: Kact; for activation of receptor by β1 and β2 antagonists (in words): human RA-β3
T2 construct: expressed in transfected cells; host or cells: CHO (Chinese Hamster Ovary), CHO-Huβ3
T2 sequence (P13945 1-402): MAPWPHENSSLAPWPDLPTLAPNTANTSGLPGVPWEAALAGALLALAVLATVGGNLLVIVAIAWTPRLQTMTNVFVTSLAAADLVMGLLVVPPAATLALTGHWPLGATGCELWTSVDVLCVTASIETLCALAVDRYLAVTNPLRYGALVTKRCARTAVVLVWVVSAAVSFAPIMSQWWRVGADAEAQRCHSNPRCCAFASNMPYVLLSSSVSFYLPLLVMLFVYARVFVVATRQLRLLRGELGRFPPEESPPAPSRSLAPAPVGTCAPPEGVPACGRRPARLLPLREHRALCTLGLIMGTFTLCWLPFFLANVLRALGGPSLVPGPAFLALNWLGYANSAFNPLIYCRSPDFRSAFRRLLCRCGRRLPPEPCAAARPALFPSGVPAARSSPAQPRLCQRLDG
Method: In order to be able to directly compare the properties of the murine and human β3-AR receptors, it was decided to express the mouse β3 gene in the CHO (Chinese Hamster Ovary) cell line which has already been used to analyse the human β3-AR receptor (see French Patent Application No. 89 00918).
as §1, §2, §3, §4

[3] = molecular target: T1, murine RA-β3; experiment: Inhibition of (-)-isoproterenol-induced cAMP accumulation in CHO-Muβ3 cells (antagonists); type: cell-based; conditions: for concentration required to inhibit isoproterenol-induced cAMP accumulation (in words): CHO-Muβ3, 5 nM (-)-isoproterenol; for inhibition of isoproterenol-induced accumulation of cAMP (in words): murine RA-β3
[4] = molecular target: T2, human RA-β3; experiment: Inhibition of isoproterenol-induced cAMP accumulation in CHO-Huβ3 cells (antagonists); type: cell-based
[5] = test system: obese rat cells; conditions: cited from earlier work
[6] = test system: RA-β3; conditions: cited from earlier work
[7] = molecular target: T1, murine RA-β3; experiment: Binding of [^125 I]ICYP to saturation, intact CHO-Muβ3 cells; conditions: saturation/Scatchard, mean±SEM, n=3, read-out: dissociation constant
Method: b. Test for the Binding of ICYP
preconfluent cells such as those described in Example 5 (10^5) are incubated for 1 hour at 37° C. in a HANKS buffer containing 20 mM HEPES (pH 7.4), 1 mM ascorbic acid, 2 μM desipramine, 0.05% bovine serum albumin and 70-7000 pM (-)-[^125 I]ICYP (2000 Ci/mmol, Amersham).
The incubations are stopped by dilution in cold PBS buffer and the bound ligand is separated from free [^125 I]ICYP by filtration (Whatman GF/C filters impregnated with 0.3% polyethyleneimine).
The filters are washed 3 times with cold PBS buffer and the radioactivity is measured.

[8] = CHO-Muβ3, agonist concentration giving 50% of the maximum stimulation, read-out: Kact

CNCC(O)c1ccc(O)c(O)c1 (single isomer, unassigned; (-)) [(-)-adrenalin]
stimulation of cAMP accumulation (in words) ([1]; CHO-Muβ3): accumulation of cAMP is stimulated
A.I. (% IPR), intrinsic activity ([1]; CHO-Muβ3): 90.6 ± 2.9%
EC50 [1, 8]: 0.023 ± 0.0003 µM
EC50 [2]: 0.0492 ± 0.0053 µM

NC[C@H](O)c1ccc(O)c(O)c1 [(-)-noradrenaline]
EC50 [1]: 0.0129 ± 0.0042 µM
stimulation of cAMP accumulation (in words) ([1]; CHO-Muβ3): accumulation of cAMP is stimulated
Emax ([1]; read-out: A.I. (% IPR), intrinsic activity): 106 ± 5.6%

CC(C)NCC(O)c1ccc(O)c(O)c1 (single isomer, unassigned; (-)) [(-)-isoproterenol]
maximum concentration of cAMP induced by isoproterenol [1]: 500 pmol per million cells

Cn1cc(C(F)(F)F)nc1-c1ccc(OCC(O)CNCCOc2ccc(O)c(C(N)=O)c2)cc1 (stereo not shown) [CGP 20712A]
Ki [3]: 6.42 ± 0.584 µM
concentration required to inhibit isoproterenol-induced cAMP accumulation (in words) [3]: micromolar concentrations are required; also recorded: micromolar amounts
inhibition of isoproterenol-induced accumulation of cAMP (in words) [3]: weak inhibitors
inhibition of isoproterenol-induced accumulation of cAMP (in words) [4]: weak inhibitors

C[C@H](Cc1ccc(OCC(=O)O)cc1)NC[C@H](O)c1cccc(Cl)c1 (relative stereo) [BRL 37344]
stimulation of cAMP accumulation, of lipolysis and of thermogenesis (in words) [5]: effectiveness in the stimulation of cAMP accumulation, of lipolysis and of thermogenesis
EC50 [1]: 0.0004 ± 0.0001 µM
stimulation of cAMP accumulation (in words) ([1]; CHO-Muβ3): potent agonist effect
A.I. (% IPR), intrinsic activity ([1]; CHO-Muβ3): 107.4 ± 8.1%
agonist potency in mice compared with human (in words) ([1]; murine vs human RA-β3): increased potency

Cc1ccc(OCC(O)C(C)NC(C)C)c2c1CCC2 (stereo not shown) [ICI 118551]
Ki [3]: 4.97 ± 0.137 µM
concentration required to inhibit isoproterenol-induced cAMP accumulation (in words) [3]: micromolar concentrations are required; also recorded: micromolar amounts
inhibition of isoproterenol-induced accumulation of cAMP (in words) [3]: weak inhibitors
inhibition of isoproterenol-induced accumulation of cAMP (in words) [4]: weak inhibitors

C=CCOc1ccccc1OCC(O)CNC(C)C (stereo not shown) [oxprenolol]
maximum stimulation of cAMP accumulation ([1]; CHO-Muβ3): 45%
A.I. (% IPR), intrinsic activity ([1]; CHO-Muβ3): 43.8 ± 6.1%
EC50 [1, 8]: 0.535 ± 0.0793 µM
activation of receptor by β1 and β2 antagonists (in words) [1]: can be activated
agonist type (in words) [1]: behave like partial agonists
EC50 [2]: 0.0766 ± 0.0126 µM
activation of receptor by β1 and β2 antagonists (in words) [2]: can be activated

CC(C)NCC(O)COc1cccc2[nH]ccc12 (stereo not shown) [pindolol]
maximum stimulation of cAMP accumulation ([1]; CHO-Muβ3): 36%
A.I. (% IPR), intrinsic activity ([1]; CHO-Muβ3): 35.1 ± 3.1%
EC50 [1, 8]: 0.999 ± 0.197 µM
activation of receptor by β1 and β2 antagonists (in words) [1]: can be activated
agonist type (in words) [1]: behave like partial agonists
activation of receptor by β1 and β2 antagonists (in words) [2]: can be activated

CC(C)(C)NCC(O)COc1cccc2[nH]c(=O)[nH]c12 (stereo not shown) [CGP 12177A]
maximum stimulation of cAMP accumulation ([1]; CHO-Muβ3): 77%
A.I. (% IPR), intrinsic activity ([1]; CHO-Muβ3): 74.9 ± 7.9%
activation of receptor by β1 and β2 antagonists (in words) [1]: can be activated
agonist type (in words) [1]: behave like partial agonists
EC50 [2]: 0.139 ± 0.0443 µM
activation of receptor by β1 and β2 antagonists (in words) [2]: can be activated
lipolysis and adenylate cyclase activity (in words) [6]: stimulates lipolysis and adenylate cyclase activity

CC(C)(C)NC[C@H](O)COc1cccc2[nH]c(C#N)c([125I])c12 [ICYP, [^125 I]iodocyanopindolol]
Kd [7]: 0.00088 ± 8.8e-05 µM

CC(C)NCC(O)COc1cccc2ccccc12 (stereo not shown) [Propranolol]
inhibition of isoproterenol-induced accumulation of cAMP (in words) [4]: weak inhibitors

Source: patent publication US5691155A, “Nucleotide sequences encoding the murine β3-adrenergic receptor and their applications” (priority 1991, dated 1997)
